Data published in patent US20220017833A1, “Methods and Compositions for Scavenging Sulfides from Hydrocarbon Fluids and Aqueous Streams” (Nexgen Oilfield Chemicals, LLC, priority 2019, published 2022).

How the values were obtained:
[1] = octanol-water partition logarithm; source not stated; cited from earlier work
[2] = Short Reaction Time Capacity Test; details: for contribution to the BT capacity (coefficient of best fit equation) / contribution to the FD capacity (coefficient of best fit equation): Short Reaction Time Capacity Test, Table 2 compositions
Text: (§1) Referring now to FIG. 1, therein is schematically depicted a sulfide scavenger testing system 100 comprising a gas source 2, a flow regulator 4, gas treatment vessel 6, and a sulfide measurement device 8. In one testing embodiment, gas (not shown) is flowed from gas source 2 via gas feed piping 10 into flow regulator 4, which regulates gas flow to gas treatment vessel 6 via regulated gas feed piping 12. The regulated gas flows into gas treatment vessel 6 via a bottom inlet 14 thereof, where it comes into contact with a volume of liquid 16 comprising a sulfide scavenger system (not separately labeled). The gas, having been treated by the liquid, flows out of a top end 18 of gas treatment vessel 6 and flows into sulfide measurement device 8 via treated gas outlet piping 20.
In one embodiment, gas flow from the flow regulator 4 is controlled such that the gas is flowed into the gas treatment vessel 6 at a flow rate of 100 mL/min. up to 500 mL/min. In one embodiment, a gas sparging device, such as a fine pore frit (not shown), is utilized to better distribute the gas into the scavenger liquid. In one embodiment, the gas treatment vessel 6 contains about 20 g of a liquid H2S scavenger, such as one or more diaminols/diaminacetals in a chemical system as described above. In one aspect, to the extent possible, H2S and/or CO2 are scavenged from the gas by the scavenger and the treated (“sweet”) gas exits top end 18 of treatment vessel 6. In one embodiment, sulfide measurement device 8 monitors the concentration of H2S leaving treatment vessel 6. in the gas phase. In other embodiments (not shown), a CO2 measurement device may be similarly employed to monitor the concentration of CO2 leaving treatment vessel 6 in the gas phase.
(§2) In one embodiment, gas is flowed through sulfide scavenger testing system 100 until the outlet H2S concentration reaches a 4,000 ppm target, at which point the test is concluded. This relative time duration before the target is reached is used to compare H2S scavenger capacity given the kinetics of each sulfide scavenger system. The longer the duration, the better the capacity.
(§3) The fine bubbles produced rise slowly, providing plenty of time, plenty of surface area, and a short path through which the H2S must diffuse to the scavenger in the liquid 16. Detector 8 on the outlet line 20 is used to measure H2S concentration in the exiting gas. The times to first detection (FD), at a threshold of 15 ppm, and to complete breakthrough (BT), at the detector saturation of 4000 ppm (0.4%), are recorded. This test is designed to measure the effective scavenging capacity in applications with long contact times.
This test is the same as the Long Reaction Time Capacity Test, but without the gas sparging device, so as to produce larger bubbles, and at a higher feed rate of 200 mL/min, after the first 8 minutes at 100 mL/min. The larger bubbles rise quickly through the liquid 16, providing little time, little surface area, and a long path through which the H2S must diffuse to the scavenger in the liquid. This test is designed to measure the effective scavenging capacity in applications with short contact times. It is far more reaction rate dependent than the Long Reaction Time Capacity and so is a more critical and differentiating test.
With triazine, one H2S reacts twice with the same molecule of triazine, replacing one amine, so the rate is “first order”, meaning proportional to the concentration of triazine.

[3] = Solution Homogeneity Test; type: physicochemical; details: Table 6, GID, water and alcohols, % composition
Text: In one aspect, as two-phase reaction products are problematic, scavenger system homogeneity is desired. The two phases could be emulsified or otherwise finely dispersed, but in practice, even fine, seemingly stable dispersions eventually separate or stratify in extended storage or critical use and are not robust enough for practical use. They are not allowed, for example, to be fed through capillaries for fear of plugging them. In this pass/fail test, a sample is held up for visual inspection in a backlit clear vial. A clear, single-phase, homogeneous solution is a pass. Anything else is a fail.

[4] = Long Reaction Time Capacity Test
Text: as §1
In one embodiment, the gas contained in gas source 2 consists substantially of about 15% H2S, and about 3% CO2, with the remainder being Methane. In one embodiment, gas flow from the flow regulator 4 is controlled such that the gas is flowed into the gas treatment vessel 6 at a flow rate of 100 mL/min. up to 500 mL/min. In one embodiment, a gas sparging device, such as a fine pore frit (not shown), is utilized to better distribute the gas into the scavenger liquid. In one embodiment, the gas treatment vessel 6 contains about 20 g of a liquid H2S scavenger, such as one or more diaminols/diaminacetals in a chemical system as described above. In one aspect, to the extent possible, H2S and/or CO2 are scavenged from the gas by the scavenger and the treated (“sweet”) gas exits top end 18 of treatment vessel 6. In one embodiment, sulfide measurement device 8 monitors the concentration of H2S leaving treatment vessel 6. in the gas phase. In other embodiments (not shown), a CO2 measurement device may be similarly employed to monitor the concentration of CO2 leaving treatment vessel 6 in the gas phase.
as §2
as §3, with “In this test, methane containing 15% H2S and 3% CO2 by weight is sparged via a fine pore frit (not shown) at 100 mL/min through a column of 20 g of scavenger solution (See FIG. 1). The fine” for “The fine”
Note that the true total capacity of a scavenger with infinite time to react is simply equal to the stoichiometry of the reaction—the moles of H2S consumable per mole of scavenging molecule, which can be calculated. This Long Reaction Time Capacity measurement falls short of that ultimate stoichiometric capacity and so is still reaction rate dependent, just less so than the Short Reaction Time Capacity Test.

[5] = 20 g test, Eq/test Triazine 0.068, GIDAc 0.157, GIDA 0.076 (7.50 g MeOH, 2.50 g BuOH)
[6] = 20 g test, Triazine 7.50 g + 12.50 g water, GIDAc 11.00 g as GID, 6.00 g MeOH, 3.00 g BuOH, GIDA 6.68 g as GID, 3.32 g water, 7.50 g MeOH, 2.50 g BuOH
[7] = 20 g test, Eq/test Triazine 0.068, GIDAc 0.185, GIDA 0.076
[8] = 20 g test, Triazine 7.50 g + 12.50 g water, GIDAc 13.00 g as GID + 7.00 g MeOH, GIDA 6.68 g as GID, 3.32 g water, 8.00 g MeOH, 2.00 g BuOH

CC(C)N=CC=NC(C)C [GID, N,N′-di(propan-2-yl)ethane-1,2-diimine]
LogP [1]: 2.3 | contribution to the BT capacity (coefficient of best fit equation) [2]: 102 minutes per equivalent | contribution to the FD capacity (coefficient of best fit equation) [2]: 92 minutes per equivalent

OCCOCCO [DEG, Diethylene Glycol]
Solution Homogeneity [3]: Fail | Solution Homogeneity ([3]; listed as diethylene glycol): do not work | LogP [1]: −1.5

OCCO [EG, Ethylene Glycol]
Solution Homogeneity [3]: Fail | Solution Homogeneity ([3]; listed as Ethylene glycol): do not work | LogP [1]: −1.7

OCCN1CN(CCO)CN(CCO)C1 [Triazine, reference compound]
Min/Eq BT [2, 5]: 380 Min/Eq | Min/Eq FD [2, 5]: 365 Min/Eq | Min to BT [2, 6]: 26 min | Min to FD [2, 6]: 25 min | molar capacity at short reaction times (comparison, accounting for molar concentration) ([2]; Graph 1 (FIG. 3)): lower molar capacity at short reaction times | Min/Eq BT [4, 7]: 994 Min/Eq | Min/Eq FD [4, 7]: 965 Min/Eq | Min to BT [4, 8]: 68 min | Min to FD [4, 8]: 66 min | molar capacity at long reaction times (comparison, accounting for molar concentration) ([4]; Graph 1 (FIG. 3)): greater molar capacity than GIDAc at long reaction times

CCCCCCCCO [n-C8OH, n-Octanol]
LogP [1]: 3.0

CO [MeOH, Methanol]
LogP [1]: −0.7

O [H2O, Water]
LogP [1]: −1.4

CCCCC(CC)CO (stereo not shown) [2EHOH, 2-Ethylhexanol]
LogP [1]: 2.8

Hexylene Glycol [HG]
LogP [1]: 0.0

CC(O)CO (stereo not shown) [PG, Propylene Glycol]
LogP [1]: −1.3

CC(=O)CC(C)C [MIBK, methyl isobutyl ketone]
contribution to the BT capacity (coefficient of best fit equation) [2]: 601 minutes per equivalent | contribution to the FD capacity (coefficient of best fit equation) [2]: 515 minutes per equivalent

CCCCCCCO [n-C7OH, n-Heptanol]
LogP [1]: 2.5
